# According to paper PMC5988692, “AZ304, a novel dual BRAF inhibitor, exerts anti-tumour effects in colorectal cancer independently of BRAF genetic status” (British Journal of Cancer, 2018):
# Read-outs that look alike come from different tables or passages of the source.
# What was measured:
# Type in all cases: cell-based
# A2058 = assay: Cell proliferation assay (cell panel, MTS); details: Homo sapiens, 72 h; A2058, Melanoma, BRAF V600E HT, RAS WT, 3 days
# Procedure: (§1) The proliferation assays against a cell panel were performed as described in ref.[18] Briefly, the cells were treated with DMSO or multiple concentrations of AZ304 for 3 days. The cell growth was determined using the CellTiter 96 Aqueous One Cell Proliferation Assay (Promega, Madison, WI). […] The assays were done in triplicate across different plates.
# (§2) Anti-proliferative activity of AZ304 against a panel of cell lines with different BRAF and RAS genetic status. […] Cell growth was determined by MTS assay.
# COLO205 = assay: Cell proliferation assay (cell panel, MTS); details: Homo sapiens, COLO 205, 72 h; COLO205, Colon, BRAF V600E HT, RAS WT, 3 days
# Procedure: as §1, §2
# HCT-15 = assay: Cell proliferation assay (cell panel, MTS); details: Homo sapiens, 72 h; HCT-15, Colon, BRAF WT, KRAS MT, 3 days
# Procedure: as §1, §2
# HCT116 = assay: Cell proliferation assay (cell panel, MTS); details: Homo sapiens, HCT-116, 72 h; HCT116, Colon, BRAF WT, KRAS MT, 3 days
# Procedure: as §1, §2
# HT29 = assay: Cell proliferation assay (cell panel, MTS); details: Homo sapiens, HT-29, 72 h; HT29, Colon, BRAF V600E HT, RAS WT, 3 days
# Procedure: as §1, §2
# L-363 = assay: Cell proliferation assay (cell panel, MTS); details: Homo sapiens, 72 h; L-363, Leukemia, BRAF WT, NRAS MT, 3 days
# Procedure: as §1, §2
# MC-F7 = assay: Cell proliferation assay (cell panel, MTS); details: Homo sapiens, MCF7, 72 h; MC-F7, Breast, BRAF WT, RAS WT, 3 days
# Procedure: as §1, §2
# MDA-MB-231 = assay: Cell proliferation assay (cell panel, MTS); details: Homo sapiens, 72 h; MDA-MB-231, Breast, BRAF G464V HT, KRAS MT, 3 days
# Procedure: as §1, §2
# MDA-MB-468 = assay: Cell proliferation assay (cell panel, MTS); details: Homo sapiens, 72 h; MDA-MB-468, Breast, BRAF WT, RAS WT, 3 days
# Procedure: as §1, §2
# PANC-1 = assay: Cell proliferation assay (cell panel, MTS); details: Homo sapiens, 72 h; PANC-1, Pancreas, BRAF WT, KRAS MT, 3 days
# Procedure: as §1, §2
# PC-3 = assay: Cell proliferation assay (cell panel, MTS); details: Homo sapiens, 72 h; PC-3, Prostate, BRAF WT, RAS WT, 3 days
# Procedure: as §1, §2
# SK-BR-3 = assay: Cell proliferation assay (cell panel, MTS); details: Homo sapiens, 72 h; SK-BR-3, Breast, BRAF WT, RAS WT, 3 days
# Procedure: as §1, §2
# SK-MEL-28 = assay: Cell proliferation assay (cell panel, MTS); details: Homo sapiens, 72 h; SK-MEL-28, Melanoma, BRAF V600E, RAS WT, 3 days
# Procedure: as §1, §2
# SK-MEL-3 = assay: Cell proliferation assay (cell panel, MTS); details: Homo sapiens, SK-MEL3, 72 h; SK-MEL-3, Melanoma, BRAF V600E, RAS WT, 3 days
# Procedure: as §1, §2
# SK-OV3 = assay: Cell proliferation assay (cell panel, MTS); details: Homo sapiens, SK-OV-3, 72 h; SK-OV3, Ovary, BRAF WT, RAS WT, 3 days
# Procedure: as §1, §2
# [1] = tested on: panel of human cancer cell lines with different BRAF and RAS genetic statuses; assay: Cell proliferation assay, ranges over the cell panel; details: 72 h, 3 days, read-out: GI50 values, range
# Procedure: as §1, §2
# Caco-2 cells = assay: MTT proliferation assay; details: Homo sapiens, Caco-2, BRAF WT, KRAS WT
# Procedure: (§3) The proliferation assays in selected colorectal cancer cell lines were measured using a 3-(4,5-dimethyl thiazol-2-yl)-2,5-diphenyl tetrazolium bromide (MTT) assay. First of all, cultured cells were seeded into 96-well plates (2000–5000 cells per well). After incubation for 24 h, the cells were pretreated with DMSO or AZ304 for 1 h. […] Cells were incubated for a further 48 or 72 h. For EGF stimulating assay, cells were incubated in reduced serum medium overnight and then treated with AZ304 or AZ304 + EGF (20 ng/ml) for 72 h. Twenty microliter of MTT solution (5 mg/ml) was added to each well followed by 4 h incubation at 37 °C. The cell culture medium was removed and the cells were lysed in 200 μl dimethylsulphoxide (DMSO) and the results were measured using a microplate reader (Model 550, Bio-Rad Laboratories, Hercules, CA, USA).
# DiFi cells = assay: MTT proliferation assay; details: Homo sapiens, BRAF WT, KRAS WT
# Procedure: as §3
# HT-29 cells = assay: MTT proliferation assay; details: Homo sapiens, HT-29, BRAF MT (V600E), KRAS WT
# Procedure: as §3
# RKO cells = assay: MTT proliferation assay; details: Homo sapiens, BRAF MT (V600E), KRAS WT
# Procedure: as §3
# [2] = 48 h, read-out: GI50 (μM) of AZ304 48 h
# [3] = 72 h, read-out: GI50 (μM) of AZ304 72 h
smiles,measurement,setting,value
COc1ccc2c(Nc3cc(NC(=O)c4cccc(C(C)(C)C#N)c4)ccc3C)ncnc2c1 [AZ304],GI50,A2058,3.82 µM
same,GI50,COLO205,0.28 µM
same,GI50,HCT-15,11.5 µM
same,GI50,HCT116,2.74 µM
same,GI50,HT29,0.51 µM
same,GI50,L-363,7.02 µM
same,GI50,MC-F7,10.1 µM
same,GI50,MDA-MB-231,1.99 µM
same,GI50,MDA-MB-468,8.83 µM
same,GI50,PANC-1,5.45 µM
same,GI50,PC-3,6.68 µM
same,GI50,SK-BR-3,11.6 µM
same,GI50,SK-MEL-28,0.5 µM
same,GI50,SK-MEL-3,0.53 µM
same,GI50,SK-OV3,6.18 µM
same,GI50,[1]; mutant BRAF cell lines,0.08 to 7.72 µM
same,GI50,[1]; mutant RAS cell lines,0.9 to 16.7 µM
same,GI50,[1]; wild type BRAF/RAS cell lines,0.43 to 11.7 µM
same,GI50,Caco-2 cells; [2],1.76 µM
same,GI50,Caco-2 cells; [3],0.377 µM
same,GI50,DiFi cells; [2],4.99 µM
same,GI50,DiFi cells; [3],0.635 µM
same,GI50,HT-29 cells; [2],3.9 µM
same,GI50,HT-29 cells; [3],0.389 µM
same,GI50,RKO cells; [2],4.54 µM
same,GI50,RKO cells; [3],0.503 µM
